From the CheMixHub viscosity set

Assay: xn = mol fraction of the nth substance listed

CCCCCCCCCC(=O)OC + CCCCO
viscosity [mPa·s], 100 kPa
Conditions | 293.15 K | 298.15 K | 303.15 K | 308.15 K | 313.15 K | 318.15 K | 323.15 K
x1 = 0.09981 | 2.423 | 2.148 | 1.914 | 1.709 | 1.538 | 1.386 | 1.254
x1 = 0.1 | – | 2.153 | 1.921 | 1.715 | 1.537 | 1.384 | –
x1 = 0.2 | – | 1.948 | 1.745 | 1.569 | 1.419 | – | –
x1 = 0.2003 | 2.159 | 1.939 | 1.74 | 1.566 | 1.418 | 1.287 | 1.173
x1 = 0.3 | – | 1.841 | 1.656 | 1.504 | 1.359 | – | –
x1 = 0.3001 | 2.041 | 1.827 | 1.646 | 1.489 | 1.353 | 1.235 | 1.13
x1 = 0.3993 | 1.973 | 1.773 | 1.602 | 1.454 | 1.326 | 1.214 | 1.116
x1 = 0.4 | – | 1.794 | 1.616 | 1.464 | 1.333 | – | –
x1 = 0.5 | – | 1.765 | 1.597 | 1.452 | 1.332 | – | –
x1 = 0.501 | 1.95 | 1.755 | 1.59 | 1.446 | 1.322 | 1.213 | 1.117
x1 = 0.6001 | – | 1.77 | 1.6 | 1.458 | 1.331 | – | –
x1 = 0.6002 | 1.944 | 1.751 | 1.589 | 1.448 | 1.325 | 1.218 | 1.124
x1 = 0.6999 | – | 1.779 | 1.613 | 1.471 | 1.347 | – | –
x1 = 0.7028 | 1.958 | 1.767 | 1.603 | 1.463 | 1.341 | 1.234 | 1.14
x1 = 0.7953 | 1.986 | 1.793 | 1.629 | 1.487 | 1.364 | 1.257 | 1.163
x1 = 0.7987 | – | 1.808 | 1.646 | 1.497 | 1.372 | – | –
x1 = 0.8967 | – | 1.846 | 1.678 | 1.532 | 1.407 | – | –
x1 = 0.8999 | 2.03 | 1.835 | 1.668 | 1.524 | 1.399 | 1.29 | 1.194

ClC(Cl)Cl + c1ccccc1
Conditions | viscosity [mPa·s]
293.15 K, 101 kPa, x1 = 0.101 | 0.627
293.15 K, 101 kPa, x1 = 0.245 | 0.606
293.15 K, 101 kPa, x1 = 0.433 | 0.593
293.15 K, 101 kPa, x1 = 0.653 | 0.582
298 K, 101 kPa, x2 = 0.1452 | 0.5431
298 K, 101 kPa, x2 = 0.2124 | 0.5457
298 K, 101 kPa, x2 = 0.2765 | 0.5478
298 K, 101 kPa, x2 = 0.3958 | 0.5532
298 K, 101 kPa, x2 = 0.5047 | 0.559
298 K, 101 kPa, x2 = 0.5556 | 0.562
298 K, 101 kPa, x2 = 0.6045 | 0.566
298 K, 101 kPa, x2 = 0.6513 | 0.5702
298 K, 101 kPa, x2 = 0.6963 | 0.5751
298 K, 101 kPa, x2 = 0.781 | 0.5844
298 K, 101 kPa, x2 = 0.8594 | 0.5943
298 K, 101 kPa, x2 = 0.8965 | 0.6002
298 K, 101 kPa, x2 = 0.9322 | 0.6044
298.15 K, 101 kPa, x1 = 0.0974 | 0.587
298.15 K, 101 kPa, x1 = 0.1964 | 0.581
298.15 K, 101 kPa, x1 = 0.2012 | 0.5935
298.15 K, 101 kPa, x1 = 0.3014 | 0.5886
298.15 K, 101 kPa, x1 = 0.3582 | 0.5866
298.15 K, 101 kPa, x1 = 0.4568 | 0.5805
298.15 K, 101 kPa, x1 = 0.4857 | 0.5773
298.15 K, 101 kPa, x1 = 0.6022 | 0.57
298.15 K, 101 kPa, x1 = 0.6861 | 0.557
298.15 K, 101 kPa, x1 = 0.7542 | 0.5603
298.15 K, 101 kPa, x1 = 0.8971 | 0.546
298.15 K, 101 kPa, x2 = 0.1029 | 0.546
298.15 K, 101 kPa, x2 = 0.1297 | 0.5454
298.15 K, 101 kPa, x2 = 0.2 | 0.525
298.15 K, 101 kPa, x2 = 0.2983 | 0.5512
298.15 K, 101 kPa, x2 = 0.3141 | 0.557
298.15 K, 101 kPa, x2 = 0.3724 | 0.5535
298.15 K, 101 kPa, x2 = 0.4 | 0.541
298.15 K, 101 kPa, x2 = 0.4086 | 0.5544
298.15 K, 101 kPa, x2 = 0.49 | 0.558
298.15 K, 101 kPa, x2 = 0.5395 | 0.5613
298.15 K, 101 kPa, x2 = 0.6 | 0.555
298.15 K, 101 kPa, x2 = 0.6023 | 0.5633
298.15 K, 101 kPa, x2 = 0.6707 | 0.5656
298.15 K, 101 kPa, x2 = 0.6862 | 0.5668
298.15 K, 101 kPa, x2 = 0.7414 | 0.5709
298.15 K, 101 kPa, x2 = 0.8 | 0.574
298.15 K, 101 kPa, x2 = 0.8037 | 0.581
298.15 K, 101 kPa, x2 = 0.8801 | 0.5866
298.15 K, 101 kPa, x2 = 0.9029 | 0.587
298.15 K, 101 kPa, x2 = 0.9214 | 0.589
298.15 K, 101 kPa, x2 = 0.962 | 0.5949
298.15 K, 101.33 kPa, x1 = 0.0672 | 0.5938
298.15 K, 101.33 kPa, x1 = 0.1508 | 0.5847
298.15 K, 101.33 kPa, x1 = 0.2151 | 0.5795
298.15 K, 101.33 kPa, x1 = 0.3057 | 0.5722
298.15 K, 101.33 kPa, x1 = 0.5108 | 0.5613
298.15 K, 101.33 kPa, x1 = 0.6489 | 0.559
298.15 K, 101.33 kPa, x1 = 0.8164 | 0.5493
298.15 K, 101.33 kPa, x1 = 0.9301 | 0.5403
303.15 K, 101 kPa, x1 = 0.101 | 0.548
303.15 K, 101 kPa, x1 = 0.245 | 0.533
303.15 K, 101 kPa, x1 = 0.433 | 0.527
303.15 K, 101 kPa, x1 = 0.653 | 0.52
308 K, 101 kPa, x2 = 0.1452 | 0.4917
308 K, 101 kPa, x2 = 0.2124 | 0.4939
308 K, 101 kPa, x2 = 0.2765 | 0.4958
308 K, 101 kPa, x2 = 0.3958 | 0.5001
308 K, 101 kPa, x2 = 0.5047 | 0.5049
308 K, 101 kPa, x2 = 0.5556 | 0.5077
308 K, 101 kPa, x2 = 0.6045 | 0.5108
308 K, 101 kPa, x2 = 0.6513 | 0.5136
308 K, 101 kPa, x2 = 0.6963 | 0.5168
308 K, 101 kPa, x2 = 0.781 | 0.5225
308 K, 101 kPa, x2 = 0.8594 | 0.5282
308 K, 101 kPa, x2 = 0.8965 | 0.5311
308 K, 101 kPa, x2 = 0.9322 | 0.5336
313.15 K, 101 kPa, x1 = 0.101 | 0.483
313.15 K, 101 kPa, x1 = 0.245 | 0.473
313.15 K, 101 kPa, x1 = 0.433 | 0.47
313.15 K, 101 kPa, x1 = 0.653 | 0.471
318 K, 101 kPa, x2 = 0.1452 | 0.451
318 K, 101 kPa, x2 = 0.2124 | 0.452
318 K, 101 kPa, x2 = 0.2765 | 0.4532
318 K, 101 kPa, x2 = 0.3958 | 0.4558
318 K, 101 kPa, x2 = 0.5047 | 0.4587
318 K, 101 kPa, x2 = 0.5556 | 0.4602
318 K, 101 kPa, x2 = 0.6045 | 0.4618
318 K, 101 kPa, x2 = 0.6513 | 0.4635
318 K, 101 kPa, x2 = 0.6963 | 0.4652
318 K, 101 kPa, x2 = 0.781 | 0.4685
318 K, 101 kPa, x2 = 0.8594 | 0.472
318 K, 101 kPa, x2 = 0.8965 | 0.4738
318 K, 101 kPa, x2 = 0.9322 | 0.4755
323.15 K, 101 kPa, x1 = 0.101 | 0.431
323.15 K, 101 kPa, x1 = 0.245 | 0.426
323.15 K, 101 kPa, x1 = 0.433 | 0.43
